Data as given in patent publication US11498919B2, “Azaindolylpyridone and diazaindolylpyridone compounds” (Sprint Bioscience AB, priority 2017, dated 2022).

Columns and labels:
[1] = system: Human osteosarcoma cells (HOS) stably expressing GFP-LC3; test: High Content Screening Autophagy Assay (GFP-LC3 foci); format: cell-based; conditions: autophagy in HOS cells, activated with KU-0063794 500 nM plus Bafilomycin A1 5 nM, 6 hours, LC3-GFP foci area per cell, read-out: Median IC50 (nM) Cellular assay
Protocol: Human osteosarcoma cells (HOS) stably expressing a Green Fluorescent Protein (GFP) tagged LC3 (GFP-LC3) were used to determine the inhibitory effect on autophagy of proprietary compounds. For that purpose, autophagy was activated by using the mTOR inhibitor KU-0063794 at 500 nM in the presence of Bafilomycin A1 (Sigma-Aldrich) at 5 nM. Shortly, cells were plated overnight in clear bottom 96-well plates in DMEM—High Modified media (Hi-Clone Cat #SH30285.01). At the start of the experiment, the media was removed and replaced with fresh media containing the mTOR inhibitor, Bafilomycin A1 and the vehicle or a test compound as indicated. After 6 hours the media was removed, cells were washed twice with ice-cold phosphate buffered saline (PBS) and fixed with 4% paraformaldehyde for 20 minutes at room temperature. Then the cells were washed twice with ice-cold PBS before adding Hoechst 33342 at 1 μg/ml in PBS for nuclear staining. After incubation overnight at 4° C., cells were washed once with PBS to remove the excess of dye and 100 μl of PBS was added to each well. Images were acquired at 20× magnification, 6 images per well, using the ImageXpress automated microscope (Molecular Devices Inc.) and analyzed with MetaXpress software to identify LC3-GFP foci. Foci area per cell values were used to generate dose response curves and IC50 values were calculated using the non-linear fitting analysis in GraphPad Prism software. […] The results of the assay are shown in Table 2 (Median IC50 nM HOS-LC3).

Vps34 enzyme = Vps34 enzyme (Homo sapiens (Human), UniProt Q8NEB9); test: Vps34 Biochemical Assay (Adapta kinase assay, TR-FRET); conditions: 20 μM ATP and 200 μM PI:PS in substrate mix, 1 h at room temperature, read-out: Median IC50 nM Adapta
Chain of Vps34 enzyme (Q8NEB9 whole entry): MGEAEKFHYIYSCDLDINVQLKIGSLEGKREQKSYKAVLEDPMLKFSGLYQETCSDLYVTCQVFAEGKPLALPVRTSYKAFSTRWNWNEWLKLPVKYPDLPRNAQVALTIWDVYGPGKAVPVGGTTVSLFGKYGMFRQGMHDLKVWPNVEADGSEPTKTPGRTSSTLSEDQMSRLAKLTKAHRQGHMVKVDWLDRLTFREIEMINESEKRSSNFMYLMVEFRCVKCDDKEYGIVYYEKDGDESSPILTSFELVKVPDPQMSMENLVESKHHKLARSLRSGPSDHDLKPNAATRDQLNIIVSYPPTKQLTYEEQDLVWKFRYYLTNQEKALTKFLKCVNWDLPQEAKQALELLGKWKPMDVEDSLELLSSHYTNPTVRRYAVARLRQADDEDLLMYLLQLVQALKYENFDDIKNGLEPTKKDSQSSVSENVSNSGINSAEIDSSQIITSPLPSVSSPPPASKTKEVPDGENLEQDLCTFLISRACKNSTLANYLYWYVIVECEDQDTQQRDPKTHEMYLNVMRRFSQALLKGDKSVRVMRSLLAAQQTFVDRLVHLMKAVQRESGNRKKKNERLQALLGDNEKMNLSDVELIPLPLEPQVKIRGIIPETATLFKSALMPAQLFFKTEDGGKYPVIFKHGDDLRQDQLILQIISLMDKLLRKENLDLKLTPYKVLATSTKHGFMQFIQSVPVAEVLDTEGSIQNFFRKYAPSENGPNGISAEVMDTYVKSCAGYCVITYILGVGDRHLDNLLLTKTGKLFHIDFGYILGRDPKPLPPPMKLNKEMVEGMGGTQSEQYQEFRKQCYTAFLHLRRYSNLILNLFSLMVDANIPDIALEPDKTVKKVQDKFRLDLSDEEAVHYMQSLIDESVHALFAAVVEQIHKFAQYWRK
Protocol: Dilution series of compounds of the invention were prepared in DMSO at 100 times the final assay concentration (n1=n0/3 in 10 points). The compounds were further diluted to 4 times the assay concentration in assay buffer (Life technologies buffer Q, PV5125, diluted 5 times supplemented with 2 mM DTT and 2 mM MnCl2). 2.5 μl of the diluted compounds were added to a 384 well assay plate followed by 2.5 μl of 16.5 nM Vps34 enzyme (Life technologies, PV5126). Enzyme and compounds were pre-incubated at rt for 15 min. Then 5 μl of substrate mix containing 20 μM ATP (Life technologies, PV3227) and 200 μM PI:PS substrate (Life technologies, PV5122) in assay buffer was added to the wells containing compound and enzyme. Mixing was performed by pipetting several times. The reaction was incubated at room temperature for 1 h. Then 5 μl stop-detection mix, prepared as described in the Adapta kinase assay kit instructions (Life technologies, PV5099) containing Adapta Eu-anti-ADP antibody (2.3 nM), Alexa Fluor 647 ADP tracer (9 nM) and EDTA (30 mM) in TR-FRET buffer, was added to quench the reaction. Mixing was performed by pipetting several times. The assay plate was then incubated at room temperature for 30 min and read with Artemis micro plate reader. Percent inhibition of the compounds as compared to DMSO treated control samples was calculated. By the use of Dotmatics software compound concentration versus percent inhibition was fitted to generate IC50 values.

Compound | IC50 [1] [nM] | IC50 (Vps34 enzyme) [nM]
Cc1cc2c(-c3cc(N4CCOCC4)[nH]c(=O)c3)ccnc2[nH]1 [Example 16, 4-(2-Methyl-1H-pyrrolo[2,3-b]pyridin-4-yl)-6-morpholino-1H-pyridin-2-one] |  | 12
Cc1cc2c(-c3cc(N4CCCCC4C(F)(F)F)[nH]c(=O)c3)ccnc2[nH]1 (stereo not shown) [Example 36, 4-(2-Methyl-1H-pyrrolo[2,3-b]pyridin-4-yl)-6-[2-(trifluoromethyl)-1-piperidyl]-1H-pyridin-2-one] | 62 | < 5
O=c1cc(-c2ccnc3[nH]c(-c4cccc(C(F)(F)F)c4)cc23)cc(N2CCOCC2C(F)(F)F)[nH]1 (stereo not shown) [Example 45, 6-[3-(Trifluoromethyl)morpholin-4-yl]-4-[2-[3-(trifluoromethyl)phenyl]-1H-pyrrolo[2,3-b]pyridin-4-yl]-1H-pyridin-2-one] |  | 34
Cc1ccc(-c2cc3c(-c4cc(N5CCOCC5C(F)(F)F)[nH]c(=O)c4)ccnc3[nH]2)s1 (stereo not shown) [Example 48, 4-[2-(5-Methyl-2-thienyl)-1H-pyrrolo[2,3-b]pyridin-4-yl]-6-[3-(trifluoromethyl)morpholin-4-yl]-1H-pyridin-2-one] |  | < 5
O=c1cc(-c2ccnc3[nH]ncc23)cc(N2CCCCC2C(F)(F)F)[nH]1 (stereo not shown) [Example 49, 4-(1H-pyrazolo[3,4-b]pyridin-4-yl)-6-[2-(trifluoromethyl)-1-piperidyl]-1H-pyridin-2-one] | 62 | < 5
O=c1cc(-c2ccnc3[nH]c(-c4cnc(C(F)(F)F)nc4)cc23)cc(N2CCCCC2C(F)(F)F)[nH]1 (stereo not shown) [Example 52, 6-[2-(Trifluoromethyl)-1-piperidyl]-4-[2-[2-(trifluoromethyl)pyrimidin-5-yl]-1H-pyrrolo[2,3-b]pyridin-4-yl]-1H-pyridin-2-one] |  | < 5
O=c1cc(-c2ccnc3[nH]c(-c4ccc(C(F)(F)F)nc4)cc23)cc(N2CCCCC2C(F)(F)F)[nH]1 (stereo not shown) [Example 55, 6-[2-(Trifluoromethyl)-1-piperidyl]-4-[2-[6-(trifluoromethyl)-3-pyridyl]-1H-pyrrolo[2,3-b]pyridin-4-yl]-1H-pyridin-2-one] |  | < 5
O=c1cc(-c2ccnc3[nH]c(-c4cncc(C(F)(F)F)c4)cc23)cc(N2CCCCC2C(F)(F)F)[nH]1 (stereo not shown) [Example 58, 6-[2-(Trifluoromethyl)-1-piperidyl]-4-[2-[5-(trifluoromethyl)-3-pyridyl]-1H-pyrrolo[2,3-b]pyridin-4-yl]-1H-pyridin-2-one] |  | 7
CCS(=O)(=O)N1CCN(c2cc(-c3ccnc4[nH]c(C5CC5)cc34)cc(=O)[nH]2)C(C(F)(F)F)C1 (stereo not shown) [Example 72, 4-(2-Cyclopropyl-1H-pyrrolo[2,3-b]pyridin-4-yl)-6-[4-ethylsulfonyl-2-(trifluoromethyl)piperazin-1-yl]-1H-pyridin-2-one] | 19 | < 5
CCS(=O)(=O)N1CCN(c2cc(-c3ccnc4[nH]c(C)cc34)cc(=O)[nH]2)C(C(F)(F)F)C1 (stereo not shown) [Example 73, 6-[4-Ethylsulfonyl-2-(trifluoromethyl)piperazin-1-yl]-4-(2-methyl-1H-pyrrolo[2,3-b]pyridin-4-yl)-1H-pyridin-2-one] | 28 | < 5
CCS(=O)(=O)N1CCN(c2cc(-c3ccnc4[nH]c(C#N)cc34)cc(=O)[nH]2)C(C(F)(F)F)C1 (stereo not shown) [Example 74, 4-[2-[4-Ethylsulfonyl-2-(trifluoromethyl)piperazin-1-yl]-6-oxo-1H-pyridin-4-yl]-1H-pyrrolo[2,3-b]pyridine-2-carbonitrile] | 89 | < 5
CS(=O)(=O)N1CCN(c2cc(-c3ccnc4[nH]ncc34)cc(=O)[nH]2)C(C(F)(F)F)C1 (stereo not shown) [Example 88, 6-[4-Methylsulfonyl-2-(trifluoromethyl)piperazin-1-yl]-4-(1H-pyrazolo[3,4-b]pyridin-4-yl)-1H-pyridin-2-one] |  | < 5

Second part, the molecule after the results:

IC50 [1] [nM] | IC50 (Vps34 enzyme) [nM] | Compound
665 | < 5 | O=c1cc(-c2ccnc3[nH]ccc23)cc(-c2ccccc2C(F)(F)F)[nH]1 [Example 4, 4-(1H-pyrrolo[2,3-b]pyridin-4-yl)-6-[2-(trifluoromethyl)phenyl]-1H-pyridin-2-one]
2570 | 20 | Cc1cnccc1-c1cc(-c2ccnc3[nH]ccc23)cc(=O)[nH]1 [Example 6, 6-(3-Methyl-4-pyridyl)-4-(1H-pyrrolo[2,3-b]pyridin-4-yl)-1H-pyridin-2-one]
366 | 10 | O=c1cc(-c2ccnc3[nH]ccc23)cc(N2CCCC2c2ccccc2)[nH]1 (stereo not shown) [Example 8, 6-(2-phenylpyrrolidin-1-yl)-4-(1H-pyrrolo[2,3-b]pyridin-4-yl)-1H-pyridin-2-one]
554 | 24 | Cc1cc2c(-c3cc(-c4cccnc4)[nH]c(=O)c3)ccnc2[nH]1 [Example 12, 4-(2-Methyl-1H-pyrrolo[2,3-b]pyridin-4-yl)-6-(3-pyridyl)-1H-pyridin-2-one]
44 | 8 | O=c1cc(-c2ccnc3[nH]c(-c4cnco4)cc23)cc(-c2ccccc2Cl)[nH]1 [Example 23, 6-(2-Chlorophenyl)-4-(2-oxazol-5-yl-1H-pyrrolo[2,3-b]pyridin-4-yl)-1H-pyridin-2-one]
16 | < 5 | O=c1cc(-c2ccnc3[nH]c(-c4cccnc4)cc23)cc(-c2ccccc2Cl)[nH]1 [Example 27, 6-(2-Chlorophenyl)-4-[2-(3-pyridyl)-1H-pyrrolo[2,3-b]pyridin-4-yl]-1H-pyridin-2-one]
54 | < 5 | Cc1cc2c(-c3cc(-c4ccccc4Cl)[nH]c(=O)c3)ccnc2[nH]1 [Example 29, 6-(2-Chlorophenyl)-4-(2-methyl-1H-pyrrolo[2,3-b]pyridin-4-yl)-1H-pyridin-2-one]
145 | < 5 | O=c1cc(-c2ccnc3[nH]ccc23)cc(N2CCCCC2C(F)(F)F)[nH]1 (stereo not shown) [Example 37, 4-(1H-pyrrolo[2,3-b]pyridin-4-yl)-6-[2-(trifluoromethyl)-1-piperidyl]-1H-pyridin-2-one]
473 | < 5 | O=c1cc(-c2ccnc3[nH]ccc23)cc(N2CCOCC2C(F)(F)F)[nH]1 (stereo not shown) [Example 42, 4-(1H-pyrrolo[2,3-b]pyridin-4-yl)-6-[3-(trifluoromethyl)morpholin-4-yl]-1H-pyridin-2-one]
176 | < 5 | O=c1cc(-c2ccnc3[nH]ccc23)cc(N2CCN(S(=O)(=O)Cc3ccc(F)cc3)CC2C(F)(F)F)[nH]1 (stereo not shown) [Example 65, 6-[4-[(4-fluorophenyl)methylsulfonyl]-2-(trifluoromethyl)piperazin-1-yl]-4-(1H-pyrrolo[2,3-b]pyridin-4-yl)-1H-pyridin-2-one]
308 | < 5 | CCS(=O)(=O)N1CCN(c2cc(-c3ccnc4[nH]ccc34)cc(=O)[nH]2)C(C(F)(F)F)C1 (stereo not shown) [Example 71, 6-[4-Ethylsulfonyl-2-(trifluoromethyl)piperazin-1-yl]-4-(1H-pyrrolo[2,3-b]pyridin-4-yl)-1H-pyridin-2-one]
 | < 5 | O=c1cc(-c2ccnc3[nH]c(C4CC4)cc23)cc(-c2ccccc2C(F)(F)F)[nH]1 [Example 79, 4-(2-cyclopropyl-1H-pyrrolo[2,3-b]pyridin-4-yl)-6-[2-(trifluoromethyl)phenyl]-1H-pyridin-2-one]
 | < 5 | N#Cc1cc2c(-c3cc(-c4ccccc4C(F)(F)F)[nH]c(=O)c3)ccnc2[nH]1 [Example 80, 4-[2-Oxo-6-[2-(trifluoromethyl)phenyl]-1H-pyridin-4-yl]-1H-pyrrolo[2,3-b]pyridine-2-carbonitrile]
485 | < 5 | O=c1cc(-c2ccnc3[nH]ncc23)cc(-c2ccccc2C(F)(F)F)[nH]1 [Example 82, 4-(1H-pyrazolo[3,4-b]pyridin-4-yl)-6-[2-(trifluoromethyl)phenyl]-1H-pyridin-2-one]
